Test results: patent publication US5250283A, “Organic contrast agent analog and method of making same” (priority 1992, dated 1993)
Read-outs that look alike come from different tables or passages of the source.

Legend:
[1] = Tissue distribution 90 min after i.v. TFA-IOP (100 umol/kg) or IOP (100 in text, 104 umol/kg in tables) in rats; format: in vivo; details: rat; for concentration at 1.5 h: 100 umol/kg; for concentration at 1.5 h / uMoles per gram tissue / uMoles per kg / Percentage of dose in tissue: i.v.; for Percentage of dose in tissue: Table 6; for tissue uptake at 1.5 h: read-out: Percentage of dose per gram
Description: No standard curves were compiled for these tissues. The values given
represent concentrations generated using the LIVER analysis routine and
standard curve. Because this routine utilizes a control LIVER spectra for
background modeling, erroneous Iodine concentration values for these
tissues may result due to inappropriate background removal.

[2] = Plasma concentration after i.v. IOP or TFA-IOP in rats; format: in vivo; details: plasma, iv, 100 umol/kg, rat
[3] = Biliary excretion and bile flow after i.v. TFA-IOP (100 umol/kg) or IOP (100 in text, 104 umol/kg in tables) in rats; details: for Percentage of dose per kg. body wt.: rat bile; for Percentage of dose per kg. body wt. / Bile flow / Bile flow per kg b.w. / Bile flow per kg l.w.: i.v.
Description: Tissues examined included liver, spleen, upper GI, lower GI, kidney, lung and heart. The length of each study was 90 minutes, during which time bile, urine and plasma samples were taken to monitor uptake and excretion. NMR relaxation rates for liver and plasma were also examined to note whether uptake of either compound might possible alter these parameters.

[4] = Urinary excretion after i.v. IOP or TFA-IOP in rats; format: in vivo; details: rat

**Q.** What does the source list for `CCC(Cc1c(I)cc(I)c(N)c1I)C(=O)O` (centres unmarked) [IOP, iopanoic acid, reference compound]?
**A.** concentration at 1.5 h ([1]; heart, iv, 90 min, liver standard curve used, may be erroneous, read-out: Heart concentration): 259 µM; uMoles per gram tissue ([1]; 90 min, heart): .26 uMOLES per gram; uMoles per kg ([1]; 90 min, heart): 259.38 uMOLES per kg; Percentage of dose in tissue ([1]; 90 min, heart): .72 PERCENTAGE OF DOSE; uMoles per gram tissue ([1]; 90 min, kidney): .11 uMOLES per gram; uMoles per kg ([1]; 90 min, kidney): 105.40 uMOLES per kg; Percentage of dose in tissue ([1]; 90 min, kidney): .69 PERCENTAGE OF DOSE; uMoles per gram tissue ([1]; 90 min, liver): .51 uMOLES per gram; uMoles per kg ([1]; 90 min, liver): 511.90 uMOLES per kg; Percentage of dose in tissue ([1]; 90 min, liver): 14.52 PERCENTAGE OF DOSE; uMoles per gram tissue ([1]; 90 min, lower GI): .14 uMOLES per gram; uMoles per kg ([1]; 90 min, lower GI): 135.23 uMOLES per kg; Percentage of dose in tissue ([1]; 90 min, lower GI): .59 PERCENTAGE OF DOSE; uMoles per gram tissue ([1]; 90 min, lung): .32 uMOLES per gram; uMoles per kg ([1]; 90 min, lung): 324.91 uMOLES per kg; Percentage of dose in tissue ([1]; 90 min, lung): 1.21 PERCENTAGE OF DOSE; uMoles per gram tissue ([1]; 90 min, spleen): .26 uMOLES per gram; uMoles per kg ([1]; 90 min, spleen): 255.54 uMOLES per kg; Percentage of dose in tissue ([1]; 90 min, spleen): .45 PERCENTAGE OF DOSE; uMoles per gram tissue ([1]; 90 min, upper GI): .31 uMOLES per gram; uMoles per kg ([1]; 90 min, upper GI): 307.91 uMOLES per kg; Percentage of dose in tissue ([1]; 90 min, upper GI): 1.31 PERCENTAGE OF DOSE; % of dose in heart ([1]; in vivo, iv, 90 min): 0.72%; % of dose in kidney ([1]; in vivo, iv, 90 min): 0.69%; % of dose in liver ([1]; in vivo, iv, 90 min): 14.53%; % of dose in lower GI ([1]; in vivo, iv, 90 min): 0.59%; % of dose in lung ([1]; in vivo, iv, 90 min): 1.21%; % of dose in spleen ([1]; in vivo, iv, 90 min): 0.45%; % of dose in upper GI ([1]; in vivo, iv, 90 min): 1.31%; tissue uptake at 1.5 h ([1]; in vivo, iv, 90 min, heart): 0.61 %ID/g; tissue uptake at 1.5 h ([1]; in vivo, iv, 90 min, kidney): 0.25 %ID/g; tissue uptake at 1.5 h ([1]; in vivo, iv, 90 min, liver): 1.21 %ID/g; tissue uptake at 1.5 h ([1]; in vivo, iv, 90 min, lower GI): 0.32 %ID/g; tissue uptake at 1.5 h ([1]; in vivo, iv, 90 min, lung): 0.77 %ID/g; tissue uptake at 1.5 h ([1]; in vivo, iv, 90 min, spleen): 0.61 %ID/g; tissue uptake at 1.5 h ([1]; in vivo, iv, 90 min, upper GI): 0.73 %ID/g; concentration at 1.5 h ([1]; kidney, iv, 90 min post injection, read-out: Kidney concentration): 105 µM; concentration at 1.5 h ([1]; kidney, iv, 90 min post injection, read-out: kidney concentration): 105 µM; concentration at 1.5 h ([1]; liver, iv, 90 min post injection, read-out: Liver concentration): 512 µM; concentration at 1.5 h ([1]; liver, iv, 90 min post injection, read-out: liver concentration): 512 µM; concentration at 1.5 h ([1]; lower gi, iv, 90 min, liver standard curve used, may be erroneous, read-out: Lower GI concentration): 135 µM; concentration at 1.5 h ([1]; lung, iv, 90 min, liver standard curve used, may be erroneous, read-out: Lung concentration): 325 µM; concentration at 1.5 h ([1]; spleen, iv, 90 min, liver standard curve used, may be erroneous, read-out: Spleen concentration): 256 µM; concentration at 1.5 h ([1]; upper gi, iv, 90 min, liver standard curve used, may be erroneous, read-out: Upper GI concentration): 308 µM; concentration at 0.5 h ([2]; 30 min): 557 µM; concentration at 50 min ([2]; 50 min): 508 µM; concentration at 1 h ([2]; 60 min): 462 µM; concentration at 70 min ([2]; 70 min): 462 µM; concentration at 80 min ([2]; 80 min): 404 µM; concentration at 1.5 h ([2]; 90 min): 373 µM; Percentage of dose per kg. body wt. ([3]; 0-10 min): 1.29 PERCENTAGE OF DOSE per kg. bod; Percentage of dose per kg. body wt. ([3]; 10-20 min): 4.38 PERCENTAGE OF DOSE per kg. bod; Percentage of dose per kg. body wt. ([3]; 20-30 min): 6.60 PERCENTAGE OF DOSE per kg. bod; Percentage of dose per kg. body wt. ([3]; 30-40 min): 5.61 PERCENTAGE OF DOSE per kg. bod; Percentage of dose per kg. body wt. ([3]; 40-50 min): 6.55 PERCENTAGE OF DOSE per kg. bod; Percentage of dose per kg. body wt. ([3]; 50-60 min): 3.86 PERCENTAGE OF DOSE per kg. bod; Percentage of dose per kg. body wt. ([3]; 60-70 min): 4.71 PERCENTAGE OF DOSE per kg. bod; Percentage of dose per kg. body wt. ([3]; 70-80 min): 4.61 PERCENTAGE OF DOSE per kg. bod; Percentage of dose per kg. body wt. ([3]; 80-90 min): 5.45 PERCENTAGE OF DOSE per kg. bod; Cmax at 1.5 h ([3]; rat, bile, iv, 100 umol/kg): 10000 µM; concentration at 5 min ([3]; rat, bile, iv, 100 umol/kg): 1610 µM; concentration at 10 min ([3]; rat, bile, iv, 100 umol/kg): 1610 µM; concentration at 0.25 h ([3]; rat, bile, iv, 100 umol/kg): 8660 µM; concentration at 20 min ([3]; rat, bile, iv, 100 umol/kg): 8660 µM; concentration at 25 min ([3]; rat, bile, iv, 100 umol/kg): 10500 µM; concentration at 0.5 h ([3]; rat, bile, iv, 100 umol/kg): 10500 µM; concentration at 35 min ([3]; rat, bile, iv, 100 umol/kg): 9850 µM; concentration at 40 min ([3]; rat, bile, iv, 100 umol/kg): 9850 µM; concentration at 50 min ([3]; rat, bile, iv, 100 umol/kg): 9670 µM; concentration at 55 min ([3]; rat, bile, iv, 100 umol/kg): 7320 µM; concentration at 1 h ([3]; rat, bile, iv, 100 umol/kg): 7320 µM; concentration at 65 min ([3]; rat, bile, iv, 100 umol/kg): 7530 µM; concentration at 70 min ([3]; rat, bile, iv, 100 umol/kg): 7530 µM; concentration at 1.25 h ([3]; rat, bile, iv, 100 umol/kg): 7760 µM; concentration at 80 min ([3]; rat, bile, iv, 100 umol/kg): 7760 µM; concentration at 85 min ([3]; rat, bile, iv, 100 umol/kg): 9560 µM; concentration at 1.5 h ([3]; rat, bile, iv, 100 umol/kg): 9560 µM; dose excreted at 1.5 h ([3]; rat, bile, iv, 100 umol/kg): 18%; Bile flow ([3]; rat, 0-10 min): .01375 mL/min; Bile flow per kg b.w. ([3]; rat, 0-10 min): .03386 ml/min per kg b.w.; Bile flow per kg l.w. ([3]; rat, 0-10 min): 1.147 ml/min per kg l.w.; Bile flow ([3]; rat, 10-20 min): .00867 mL/min; Bile flow per kg b.w. ([3]; rat, 10-20 min): .02136 ml/min per kg b.w.; Bile flow per kg l.w. ([3]; rat, 10-20 min): .72404 ml/min per kg l.w.; Bile flow ([3]; rat, 20-30 min): .01077 mL/min; Bile flow per kg b.w. ([3]; rat, 20-30 min): .02652 ml/min per kg b.w.; Bile flow per kg l.w. ([3]; rat, 20-30 min): .89866 ml/min per kg l.w.; Bile flow ([3]; rat, 30-40 min): .00977 mL/min; Bile flow per kg b.w. ([3]; rat, 30-40 min): .02406 ml/min per kg b.w.; Bile flow per kg l.w. ([3]; rat, 30-40 min): .81528 ml/min per kg l.w.; Bile flow ([3]; rat, 40-50 min): .01161 mL/min; Bile flow per kg b.w. ([3]; rat, 40-50 min): .02861 ml/min per kg b.w.; Bile flow per kg l.w. ([3]; rat, 40-50 min): .96953 ml/min per kg l.w.; Bile flow ([3]; rat, 50-60 min): .00904 mL/min; Bile flow per kg b.w. ([3]; rat, 50-60 min): .02225 ml/min per kg b.w.; Bile flow per kg l.w. ([3]; rat, 50-60 min): .75417 ml/min per kg l.w.; Bile flow ([3]; rat, 60-70 min): .01072 mL/min; Bile flow per kg b.w. ([3]; rat, 60-70 min): .02640 ml/min per kg b.w.; Bile flow per kg l.w. ([3]; rat, 60-70 min): .89457 ml/min per kg l.w.; Bile flow ([3]; rat, 70-80 min): .01018 mL/min; Bile flow per kg b.w. ([3]; rat, 70-80 min): .02506 ml/min per kg b.w.; Bile flow per kg l.w. ([3]; rat, 70-80 min): .84942 ml/min per kg l.w.; Bile flow ([3]; rat, 80-90 min): .00977 mL/min; Bile flow per kg b.w. ([3]; rat, 80-90 min): .02407 ml/min per kg b.w.; Bile flow per kg l.w. ([3]; rat, 80-90 min): .81586 ml/min per kg l.w.; dose excreted at 10 min ([3]; rat, in vivo, iv, 100 umol/kg, Percentage of dose in bile sample, 0-10 min): 0.52%; dose excreted at 20 min ([3]; rat, in vivo, iv, 100 umol/kg, Percentage of dose in bile sample, 10-20 min): 1.78%; dose excreted at 0.5 h ([3]; rat, in vivo, iv, 100 umol/kg, Percentage of dose in bile sample, 20-30 min): 2.68%; dose excreted at 40 min ([3]; rat, in vivo, iv, 100 umol/kg, Percentage of dose in bile sample, 30-40 min): 2.28%; dose excreted at 50 min ([3]; rat, in vivo, iv, 100 umol/kg, Percentage of dose in bile sample, 40-50 min): 2.66%; dose excreted at 1 h ([3]; rat, in vivo, iv, 100 umol/kg, Percentage of dose in bile sample, 50-60 min): 1.57%; dose excreted at 70 min ([3]; rat, in vivo, iv, 100 umol/kg, Percentage of dose in bile sample, 60-70 min): 1.91%; dose excreted at 80 min ([3]; rat, in vivo, iv, 100 umol/kg, Percentage of dose in bile sample, 70-80 min): 1.87%; dose excreted at 1.5 h ([3]; rat, in vivo, iv, 100 umol/kg, Percentage of dose in bile sample, 80-90 min): 2.21%; dose excreted at 10 min ([3]; rat, in vivo, iv, 100 umol/kg, Percentage of dose running total in bile, through 0-10 min): 0.52%; dose excreted at 20 min ([3]; rat, in vivo, iv, 100 umol/kg, Percentage of dose running total in bile, through 10-20 min): 2.3%; dose excreted at 0.5 h ([3]; rat, in vivo, iv, 100 umol/kg, Percentage of dose running total in bile, through 20-30 min): 4.98%; dose excreted at 40 min ([3]; rat, in vivo, iv, 100 umol/kg, Percentage of dose running total in bile, through 30-40 min): 7.26%; dose excreted at 50 min ([3]; rat, in vivo, iv, 100 umol/kg, Percentage of dose running total in bile, through 40-50 min): 9.92%; dose excreted at 1 h ([3]; rat, in vivo, iv, 100 umol/kg, Percentage of dose running total in bile, through 50-60 min): 11.5%; dose excreted at 70 min ([3]; rat, in vivo, iv, 100 umol/kg, Percentage of dose running total in bile, through 60-70 min): 13.4%; dose excreted at 80 min ([3]; rat, in vivo, iv, 100 umol/kg, Percentage of dose running total in bile, through 70-80 min): 15.3%; dose excreted at 1.5 h ([3]; rat, in vivo, iv, 100 umol/kg, Percentage of dose running total in bile, through 80-90 min): 17.5%; Urine concentration ([4]; 0-20 min): 0 µM; Urine concentration ([4]; 20-40 min): 0 µM; Urine concentration ([4]; 40-60 min): 0 µM; Urine concentration ([4]; 60-80 min): 0 µM; Urine concentration ([4]; 80-90 min): 0 µM
